From US20140178305A1, “IDENTIFICATION AND USE OF ANXIOLYTIC COMPOUNDS” (CALIFORNIA INSTITUTE OF TECHNOLOGY, priority 2012, published 2014)

Tests used:
MRGPRB4+ fibres = experiment: Two-photon in vivo calcium imaging (GCaMP3.0) of central afferent fibres through a spinal cord laminectomy, chemical stimuli; design: species or system mouse; details: CNO, mice injected only with GCaMP3.0 viruses (no hM3DREADD)
Method: Mice expressing reporters and/or Cre recombinase targeted to the MrgprB4 locus were generated by homologous recombination in embryonic stem cells, according to standard procedures. Heterozygous neonates from MrgprD-Cre and MrgprB4-Cre mice were injected intraperitoneally with Cre-dependent AAV8 viruses expressing GCaMP3.0 or mGCaMP3.0 or hM3(Gq-coupled) DREADD, and imaged as adults (≧8 weeks old).
Electrophysiology experiments on ex vivo skin-nerve preparations from adult heterozygous Mrgprb4-EGFPf reporter mice were performed as described in Woodbury, et al. J. Comp. Neurol. 436, 304-323 (2001). For calcium imaging, after a dorsal laminectomy the spinal column was stabilized and filled with imaging solution (see below for details). Imaging was performed using a two-photon laser-scanning microscope (Ultima, Prairie Inc.) using an Olympus 40×0.8 N.A. water immersion objective, at 128×128 pixel resolution with an acquisition rate of 8-12 frames per second. Mechanical stimuli were delivered using a custom-modified No. 5 sable paint brush or serrated forceps, in a manner electronically time-stamped to image acquisition, as may be seen in FIGS. 18A-18C and further discussed below. Stimuli were delivered to each mouse in a series of trials, separated by a few minutes; each trial consisted of one or more stimuli delivered typically at intervals of several seconds. Chemical stimuli were delivered to the spinal cord using a Pipetman pipette and to the periphery using a syringe pump. Calcium responses were analysed using custom software written in Matlab (see below for more details). For calculating ΔF/F [(Fav−F0)/F0], F0 is the average of the first ten frames of the recording period.
Mice 2 months or older were sedated by i.p. injection of a mix of ketamine (100 mg/kg), xylazine (15 mg/kg), acepromazine (2.5 mg/kg in 0.9% NaCl). During surgery, body temperature was maintained at 37° C. with a heating blanket.
A dorsal laminectomy was performed mostly at spinal level L2-L4 (but occasionally at L1-L3) as described in Johannssen, et al. J. Physiol. (Lond.) 588:3397-3402 (2010), but without removing the dura. The spinal column was stabilized using Narishige STS-A spinal clamps. In addition a head-holding adaptor from Kopf (923-B Mouse Gas Anaesthesia Head Holder) was used that has installed an anaesthesia/gas mask for positioning the mouse head. In this apparatus the gas is applied through a standard hose barb positioned above the nose on the mask. The inlet fills a large gas chamber around the snout, a second hose barb below the mask is provided for vacuuming off excess, expelled gasses. The animals were maintained under continuous anaesthesia for the duration of the imaging experiments with 1-2% isofluorane or with hourly injections of the above ketamine mix. A well was built around the exposed spinal cord using Gelseal (Amersham Biosciences Corp) and Kwik Sil Adhesive (WPI). Warm imaging solution (in mM: 130 NaCl, 3 KCl, 2.5 CaCl2, 0.6 6H2O.MgCl2, 10 HEPES without Na, 1.2 NaHCO3, 10 glucose, pH7.45 with NaOH) (37° C.) was repeatedly applied to prevent drying and maintain tissue integrity, and to allow the use of immersion objectives. During imaging the body temperature of the animals was maintained at 37° C. with a heating blanket and an air-therm heater (WPI) placed inside the microscope area.
Imaging experiments were performed under a two-photon laser-scanning microscope (Ultima, Prairie Instruments Inc.). Live images were acquired at 8-12 frames per second, at depths below the pia ranging from 100 to 250 μm, using an Olympus 40×0.8 N.A. water immersion objective, at 128×128 pixel resolution with a laser tuned to 940 nm wavelength, and emission filters 525/50 nm and 595/50 nm for green and red fluorescence, respectively. Laser power was adjusted to be 20-25 mW at the focal plane (maximally 35 mW), depending on the imaging depth and level of expression of GCaMP3.0. […]

[1] = test system: MRGPRD+ neurons (hM3DREADD); experiment: Conditioned place preference (CPP) assay, biased design, pharmacogenetic activation with CNO; type: in vivo, mouse; details: MrgprD-Cre/hM3DREADD mice conditioned with CNO, n=8
Method: For behavioral experiments, juvenile (1-month-old) mice neonatally injected with Cre-dependent AAV8 viruses expressing hM3DREADD were subjected to a conditioned place preference assay (CPP13) using a biased design, by an investigator blind to genotype. All mice were tested for their initial chamber preference before conditioning, as depicted in FIG. 4C, lower panel).
The conditioned place preference (CPP) protocol was based on previous studies. For testing a positive valence effect of activation of MrgprB4^+ neurons, a biased compartment assignment procedure in which activation of the neurons is tested for its ability was used to increase the time spent in the initially non-preferred chamber. The CPP apparatus consisted of a rectangular chamber divided into three compartments (300×150×150 mm per compartment), connected via an opening (50×50 mm) in each delimiting wall. The two side (test) compartments were designed to have different visual and tactile cues, by having distinct walls (horizontal or vertical alternating white and black stripes) and distinct floors (different shapes of floor grids with big or small square holes). In addition a 1-inch-diameter polyvinylchloride (PVC) pipe coupler (two schedule 40 wall thickness), either threaded or smooth, was placed in the centre of each side compartment to enrich for tactile cues. The centre compartment was a neutral plastic enclosure (see FIG. 4B). This design was chosen so as to promote a compartment preference assignment for each mouse. A video tracking system (Noldus Ethovision) recorded all animal movements.
Because our hypothesis is based on the social reward mediated by social contact in juvenile mice, the mice used were approximately 1-month old. After weaning the mice were maintained in social groups and left undisturbed until the start of the CPP assay. The paradigm was completed in 6 days. On the day before pre-testing the mice were socially isolated in their home cage. On day 1 of the procedure each mouse was placed in the central compartment and allowed to explore the entire apparatus freely for 30 min (pre-test). After the pre-test the initial preference of each mouse for a given side compartment was recorded. […] Conditioning was initiated on day 2 and encompassed four sessions performed on four consecutive days. In the first conditioning session mice were injected i.p. with CNO (5 mg kg) (or saline of an equivalent volume for some control mice) and placed for 1 h (based on the observation that CNO effects peak between 45 and 50 min after administration) in the initially non-preferred (I.N.P.) compartment. On day 3, during the second conditioning session, all mice were injected with saline and confined for 1 hr in the opposite (that is, initially preferred, I.P.) compartment. (The second conditioning session was performed the following day as CNO effects last for 9 hrs.) On day 4 and day 5 the first and second conditioning sessions were repeated, respectively. The time between the i.p. injections of CNO or saline and the placement of the mice in the compartment was between 5-10 min, which is compatible with the time that is needed for CNO to start having an effect. On day 6, the mice were tested for their side compartment preference by placing them in the centre compartment and allowing them to explore the entire apparatus freely for 30 min (post test). All sessions were conducted blind to the genotype/injected virus of each mouse. For the conditioned place aversion (CPA assay) the mice remained group-housed until the day before the pre-test. After the pre-test, on the first day of the conditioning session the mice were injected with saline and confined in the I.N.P. compartment. On the second day of conditioning the mice were injected with CNO (except for the saline control mice) and placed in the I.P. compartment. On the third and fourth day of conditioning the first and second sessions of conditioning were repeated, respectively. […]

C[N+]1([O-])CCN(C2=Nc3cc(Cl)ccc3Nc3ccccc32)CC1 [CNO, Clozapine-N-oxide]
calcium transients after application to the spinal cord (MRGPRB4+ fibres): no CNO responses
conditioned place preference (CPP) [1]: neither CPP
